Measured values taken from patent US10787425B2, “Thiazolidinedione derivative and use thereof” (INDUSTRY-ACADEMIC COOPERATION FOUNDATION CHOSUN UNIVERSITY, priority 2016, dated 2020).
pIC50: −log10 of the molar value.

What was measured:
15-PGDH = 15-PGDH (Homo sapiens (Human), UniProt P15428); assay: 15-PGDH inhibitory activity (NADH at 340 nm); assay type: biochemical; details: concentration inhibiting 50% of 15-PGDH activity; purified 15-PGDH, 21 μM PGE2, 0.25 mM NAD+
In short: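 GST-purified human 15-PGDH (E. coli BL-21 LysS, 10 μg) with 21 μM PGE2 and 0.25 mM NAD+ in 50 mM Tris-HCl pH 7.5, 0.1 mM DTT. Compound tested at 0.0001–64 μM; NADH formation read by absorbance at 340 nm against a standard curve.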

A549 cells = assay: Measurement of PGE2 concentration in A549 cell medium (ELISA); assay type: cell-based, human; details: for Increment %: PGE2 concentration versus PBS control, 5 μM, 12 hours; for PGE2 concentration: inhibitor 5 μM, medium collected after 12 hours, ELISA
In short: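 A549 cells in RPMI 1640 with 8% FBS, seeded at 5×10^5 cells/well and grown 24 h at 37° C, 5% CO2; at ~80% confluence treated with 15-PGDH inhibitor at 5 μM in PBS (PBS-only negative control). After 12 h, PGE2 in the medium was measured by ELISA against a standard curve.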

Chain of 15-PGDH (P15428 whole entry): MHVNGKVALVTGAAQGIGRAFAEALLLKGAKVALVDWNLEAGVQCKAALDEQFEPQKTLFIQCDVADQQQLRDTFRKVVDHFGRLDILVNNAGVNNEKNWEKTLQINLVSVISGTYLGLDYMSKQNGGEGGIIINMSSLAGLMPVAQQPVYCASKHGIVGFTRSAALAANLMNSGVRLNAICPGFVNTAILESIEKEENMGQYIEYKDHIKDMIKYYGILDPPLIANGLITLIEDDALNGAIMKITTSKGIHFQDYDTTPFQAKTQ

Structure (SMILES): O=C1NC(=O)/C(=C/c2cccc(OC(=O)C3CCCC3)c2Cl)S1 [Compound 78, (Z)-2-chloro-3-((2,4-dioxothiazolidin-5-ylidene)methyl)phenyl cyclopentanecarboxylate]
- pIC50 (15-PGDH): 7.25
- Increment % (A549 cells): −67.32%
- PGE2 concentration (A549 cells): 39.11 pg/mL

Structure (SMILES): O=C(Cc1ccccc1)Oc1ccc(/C=C2\SC(=O)NC2=O)cc1 [Compound 72, (Z)-4-((2,4-dioxothiazolidin-5-ylidene)methyl)phenyl 2-phenylacetate]
- pIC50 (15-PGDH): 6.97
- Increment % (A549 cells): −18.07%
- PGE2 concentration (A549 cells): 105.832 pg/mL

Structure (SMILES): O=C(CCC1CCCC1)Oc1ccc(/C=C2\SC(=O)NC2=O)cc1 [Compound 65, (Z)-4-((2,4-dioxothiazolidin-5-ylidene)methyl)phenyl 3-cyclopentylpropanoate]
- pIC50 (15-PGDH): 7.63
- Increment % (A549 cells): 78.97%
- PGE2 concentration (A549 cells): 284.8007 pg/mL

Structure (SMILES): O=C(O)c1ccccc1.O=C1NC(=O)/C(=C/c2ccc(OC(=O)c3ccccc3)c(Cl)c2)S1 [Compound 11, (Z)-2-chloro-4-((2,4-dioxothiazolidin-5-ylidene)methyl)phenyl benzoate]
- pIC50 (15-PGDH): 7.50
- Increment % (A549 cells): −78.32%
- PGE2 concentration (A549 cells): 25.95 pg/mL

Structure (SMILES): COc1cc(/C=C2\SC(=O)NC2=O)ccc1OC(=O)C1CCCCC1 [Compound 36, (Z)-4-((2,4-dioxothiazolidin-5-ylidene)methyl)-2-methoxyphenyl cyclohexanecarboxylate]
- pIC50 (15-PGDH): 6.62
- Increment % (A549 cells): 101.32%
- PGE2 concentration (A549 cells): 408.196 pg/mL

Structure (SMILES): O=C1NC(=O)/C(=C/c2ccc(OC(=O)C3CCCC3)cc2)S1 [Compound 63, (Z)-4-((2,4-dioxothiazolidin-5-ylidene)methyl)phenyl cyclopentanecarboxylate]
- pIC50 (15-PGDH): 6.75
- Increment % (A549 cells): 49.33%
- PGE2 concentration (A549 cells): 237.6336 pg/mL

Structure (SMILES): COc1cc(/C=C2\SC(=O)NC2=O)ccc1OC(=O)C1CC1 [Compound 31, (Z)-4-((2,4-dioxothiazolidin-5-ylidene)methyl)-2-methoxyphenyl cyclopropanecarboxylate]
- pIC50 (15-PGDH): 5.96
- Increment % (A549 cells): 1.13%
- PGE2 concentration (A549 cells): 199.4327 pg/mL

Structure (SMILES): O=C1NC(=O)/C(=C/c2ccc(OC(=O)C3CCCC3)cc2Cl)S1 [Compound 93, (Z)-3-chloro-4-((2,4-dioxothiazolidin-5-ylidene)methyl)phenyl cyclopentanecarboxylate]
- pIC50 (15-PGDH): 7.15
- Increment % (A549 cells): 2.9785%
- PGE2 concentration (A549 cells): 114.9832 pg/mL

Structure (SMILES): CCOc1cc(/C=C2\SC(=O)NC2=O)ccc1OC(=O)CC1CCCCC1 [Compound 52, (Z)-4-((2,4-dioxothiazolidin-5-ylidene)methyl)-2-ethoxyphenyl 2-cyclohexylacetate]
- pIC50 (15-PGDH): 7.48
- Increment % (A549 cells): −18.49%
- PGE2 concentration (A549 cells): 223.32 pg/mL

Structure (SMILES): COc1cc(/C=C2\SC(=O)NC2=O)ccc1OC(=O)C1CCC1 [Compound 32, (Z)-4-((2,4-dioxothiazolidin-5-ylidene)methyl)-2-methoxyphenyl cyclobutanecarboxylate]
- pIC50 (15-PGDH): 5.95
- Increment % (A549 cells): 60.62%
- PGE2 concentration (A549 cells): 316.7495 pg/mL

Structure (SMILES): O=C1NC(=O)/C(=C/c2ccc(OC(=O)C3CCC3)cc2Cl)S1 [Compound 92, (Z)-3-chloro-4-((2,4-dioxothiazolidin-5-ylidene)methyl)phenyl cyclobutanecarboxylate]
- pIC50 (15-PGDH): 6.69
- Increment % (A549 cells): −57.6754%
- PGE2 concentration (A549 cells): 47.26 pg/mL

Structure (SMILES): O=C1NC(=O)/C(=C/c2ccc(OC(=O)C3CCCCC3)c(Cl)c2)S1 [Compound 6, (Z)-2-chloro-4-((2,4-dioxothiazolidin-5-ylidene)methyl)phenyl cyclohexanecarboxylate]
- pIC50 (15-PGDH): 6.86
- Increment % (A549 cells): 27.71%
- PGE2 concentration (A549 cells): 349.6304 pg/mL

Structure (SMILES): CCOc1cc(/C=C2\SC(=O)NC2=O)ccc1OC(=O)CCCCc1ccccc1 [Compound 60, (Z)-4-((2,4-dioxothiazolidin-5-ylidene)methyl)-2-ethoxyphenyl 5-phenylpentanoate]
- pIC50 (15-PGDH): 7.23
- Increment % (A549 cells): 88.87%
- PGE2 concentration (A549 cells): 300.5549 pg/mL
